According to patent publication US20200199170A1, “COMPOUNDS HAVING ANTI-INFLAMMATORY AND ANTI-OXIDANT ACTIVITY” (UNIVERSITÀ DEGLI STUDI DI FERRARA, priority 2015, published 2020):

Columns and labels:
[1] = system: cell production of interleukin-1 (IL-1α) in human keratinocytes stimulated with TNF-α; assay: Anti-inflammatory activity: IL-1α production in keratinocytes stimulated with TNF-α; type: cell-based; details: human keratinocytes pretreated 24 hours with 10 μM solution, then TNF-α; negative control DMSO; FIG. 1A
Experimental: (§1) The cells (human keratinocytes acquired from Life Technologies) have been pretreated for 24 hours with 1A or 1B and subsequently stimulated with cytokines, otherwise referred to as Tumor Necrosis Factor, TNF-α, in order to mimic an inflammatory process.
TNF-α induces inflammation in the cells treated, that is to say, the cell production of interleukin-1 (IL-1α).

[2] = Photochemiluminescence antioxidant test (Photochem, luminol); details: superoxide radical, FIG. 2
Experimental: For the study of the antioxidant activity, use was made of a photochemiluminescence test that allows evaluating the antioxidant capacity of the tested molecules with respect to the superoxide radical (O2^−); the latter is photochemically generated by means of UV radiations. The marker used is luminol, a molecule that is capable of emitting chemiluminescence when it is oxidized by free radicals; such emission of light is then measured by means of a suitable instrument (Analityk Jena AG: Photochem®—Antioxidants and Free Radicals). The presence of antioxidant substances in the reaction admixture deactivates the radical species by inhibiting the emission of chemiluminescence. The analysis is very rapid and sensitive. […]
Since the antioxidant activity cannot be measured in absolute terms, the common practice is to compare the activity of a compound with that of molecules having an antioxidant capacity that is already known, such as, for example, tocopherol (otherwise known as vitamin E). By comparing the recorded values with the measurements relating to the standard reference molecules ([…]), the antioxidant capacity of the product being examined is obtained.

[3] = system: IL-1α gene expression in human keratinocytes; assay: Real-time PCR quantification of gene expression in TNF-α stimulated keratinocytes; type: cell-based; details: keratinocytes pre-treated with compound, then TNF-α; FIG. 1B
Experimental: as §1
The cell response has also been set out by means of real-time PCR measurements, which are intended to quantify the gene expression (the production of IL-1α is an activity that is codified by specific genes). In FIG. 1B, the so-called “control” is the response of the non-stimulated cells (absence of inflammatory process), “TNF-α” is the response of the cells stimulated with cytokine, while “1A+TNF-α” and “1B+TNF-α” are the responses obtained with the cells pre-treated with 1A and 1B, respectively.

neuronal cells = assay: Neuro-protective activity, MTT assay, glutamate-induced death; type: cell-based; details: FIG. 3; for neuro-protective activity on the death of neuronal cells caused by glutamate: MTT assay, pre-treatment before glutamate; for viability of the cells: neuronal cells, pre-treatment with compound then glutamate, MTT

Structure (SMILES): Cc1ccc(O)c2c1CCC1C3CC[C@](O)(C(=O)CO)[C@@]3(C)CC(=O)[C@@]21O (stereo partly shown) [1A]
- cell production of IL-1α [1]: comparable with that of the negative control
- moles having the antioxidant activity of 1 mole of ascorbic acid [2]: 1.09 mol
- gene expression (real-time PCR) [3]: absence of gene expression
- neuro-protective activity on the death of neuronal cells caused by glutamate (neuronal cells): have a neuro-protective activity
- viability of the cells (neuronal cells): ~80%

Structure (SMILES): Cc1ccc(O)c2c1CCC1C3CC[C@](O)(C(O)CO)[C@@]3(C)CC(=O)[C@@]21O (stereo partly shown) [1B]
- cell production of IL-1α [1]: comparable with that of the negative control
- moles having the antioxidant activity of 1 mole of ascorbic acid [2]: 1.18 mol
- gene expression (real-time PCR) [3]: absence of gene expression
- neuro-protective activity on the death of neuronal cells caused by glutamate (neuronal cells): have a neuro-protective activity
- viability of the cells (neuronal cells): ~80%
